Reference: PMC8481502, “Bovine NK-lysin peptides exert potent antimicrobial activity against multidrug-resistant Salmonella outbreak isolates” (Scientific Reports, 2021)
Peptide text beside a SMILES is read from it.

What was measured:
[1] = tested on: Salmonella SX238 outer- and inner-membranes; test: Transmission electron microscopy of peptide-treated bacteria; format: cell-based, Salmonella enterica serovar I 4,[5],12:i:-; conditions: 20 µM peptide, 1 h at 37 °C, ~1 × 10^7 CFU/well in PBS
Experimental: Morphological changes of bacteria following incubation with NK2A and Sc-NK2A peptides were studied by TEM. An overnight culture of Salmonella (isolate SX238) was centrifuged and resuspended in PBS. One hundred microliters of bacterial suspension were placed in a Honeycomb plate (~ 1 × 10^7 CFU/well) and NK2A, Sc-NK2A (20 µM), and PBS were added and incubated at 37 °C with continuous shaking for 1 h. The bacterial suspensions were mixed with an equal volume of 3% glutaraldehyde in 0.1 M cacodylate buffer (pH 7.4) and processed for TEM as described before. Sections were examined with a FEI Tecnai G2 Biotwin (FEI Co., Hillboro, OR) TEM and images were taken with Advanced Microscopy Technologies (AMT Inc., Danvers, […]) imaging camera.

[2] = tested on: MDR Salmonella enterica serovar I 4,[5],12:i:- strain USDA15WA-1 (SX238); test: Growth curve assay (automated reader, OD600) with isolate SX238; format: cell-based
Experimental: (§1) Overnight cultures of a MDR Salmonella outbreak isolate (SX238) and one non-MDR Salmonella isolate (SB377) were diluted 1:1000 in LB broth to obtain approximately 1 × 10^6 colony forming units per milliliter (CFU/mL). One hundred microliters of each diluted culture were transferred into honeycomb® 100-well plates (~ 1 × 10^5 CFU/well) (Growth Curves USA, Piscataway, NJ). Bovine NK-lysin peptides (NK1, NK2A, NK2B, and NK2C) were added at the final peptide concentrations of 20, 10, 5, 3.5, 2 µM in PBS (total volume = 20 µL) with a final bacterial-peptide volume of 120 µL/well. The plates were covered with lids and placed in an automated growth curve reader (Bioscreen C; Growth Curves USA, Piscataway, NJ) which was programmed for continuous shaking at 37 °C, and optical density readings at 600 nm (OD600) were recorded every hour for 24 h. […] The optical density data were analyzed, and growth curve graphs for each isolate were generated using MS Excel. […] Twenty-four-hour growth curve assays for Salmonella isolate SX238 were repeated at different bacterial CFU (~ 1 × 10^5, 1 × 10^6, 1 × 10^7, and 1 × 10^8 CFU/mL) with NK2A (5 µM and 10 µM). Sc-NK2A was included as a control for the assay.

[3] = tested on: Salmonella enterica serotype Typhimurium LPS; growth of isolate SX238; test: NK2A-LPS binding by growth curve assay after LPS preincubation; format: cell-based
Experimental: The binding of NK2A to Salmonella LPS was studied by growth curve assay and TEM. Five micromolar NK2A (~ 2.2 µg/well) was preincubated with different amounts of Salmonella enterica serotype Typhimurium LPS (Sigma; LPS = 0, 0.5, 1.1, 2.2, 4.4, 8.8 µg/well, final volume of LPS and NK2A = 20 µL) at 37 °C in a honeycomb plate with continuous shaking for 30 min. Overnight Salmonella (isolate SX238) culture was diluted to ~ 1 × 10^6 CFU/mL and 100 µL was transferred into wells containing NK2A-LPS and further incubated at 37 °C with continuous shaking for 24 h. The optical density (OD600) data were analyzed, and growth curve graphs were generated.

[4] = tested on: MDR Salmonella enterica serovar Typhimurium DT193 strain 1434 (SX231); test: Growth curve assay (automated reader, OD600) with isolate SX231; format: cell-based; conditions: LB broth, 10^5 CFU/well, OD600 over 24 h
Salmonella SX238 = test: LIVE/DEAD BacLight staining, confocal laser scanning microscopy; format: cell-based, Salmonella enterica serovar I 4,[5],12:i:-; conditions: 5 µM peptide
Experimental: The viabilities of bacteria following incubation with NK2A and Sc-NK2A were determined using culture-independent (function of the membrane integrity of the bacteria) staining technique by using LIVE/DEAD™ BacLight™ bacterial viability kit (for microscopy) as described previously. Bacteria in each treatment was visualized using a Nikon A1R + laser scanning confocal microscope (Nikon Instruments, Melville, NY) as described previously. Images were obtained using plan Apo 60 × objective lens (oil) at numerical aperture 1.4. Final figures were prepared using Adobe Photoshop Elements 11.

[5] = tested on: MDR Salmonella enterica serovar Heidelberg (SB395); test: Growth curve assay (automated reader, OD600) with isolate SB395; format: cell-based; conditions: LB broth, 10^5 CFU/well, OD600 over 24 h
[6] = tested on: Salmonella isolates (MDR and non-MDR); test: Growth curve assay, statements over all Salmonella isolates; format: cell-based
Experimental: as §1

[7] = tested on: MDR Salmonella outbreak isolate SX238 cytoplasmic membrane; test: Propidium iodide (PI) uptake assay; format: cell-based, Salmonella enterica serovar I 4,[5],12:i:-; conditions: 5 µM peptide, 30 min, ~1 × 10^7 CFU/well in PBS, 3 µM PI
Experimental: The kinetics of NK2A-induced damage to Salmonella cell membranes were evaluated using PI uptake assay as described previously. Briefly, an overnight culture of MDR Salmonella outbreak isolate SX238 was centrifuged, washed with PBS, and resuspended in PBS. Ninety microliters of bacterial suspension was transferred to a 96-well opaque plate (~ 1 × 10^7 CFU/well), mixed with 10 µL of PI (final concentration = 3 µM) and incubated at 37 °C for 5 min. PBS, polymyxin B (2, 4, 25, 50 and 100 µg/mL), NK2A or Sc-NK2A (both at 2 and 5 µM) were added and PI fluorescent intensities in each well was continuously measured (15 s intervals, flex mode) using a FlexStation 3 multi-mode (fluorescent) microplate reader (Molecular Devices LLC., San Jose, CA) for up to 6 h. The excitation and emission wavelengths for PI was set up at 530 nm and 620 nm, respectively.

[8] = tested on: Salmonella enterica serovar Typhimurium isolate UK-1 (SB377, non-MDR); test: Growth curve assay (automated reader, OD600) with isolate SB377; format: cell-based; conditions: LB broth, ~1 × 10^5 CFU/well, 37 °C, OD600 every hour for 24 h; tested 2-20 µM
Experimental: as §1

Swiss-Webster mice = test: Mouse study of in vivo cytotoxic effects; conditions: single intraperitoneal dose 100 µg (~ 4 mg/kg) in PBS, female Swiss-Webster mice, 5 per cage, 2-week observation
Experimental: To determine whether NK-lysin peptides show in vivo cytotoxic effects, a mouse study was conducted. Briefly, thirty 5–6 weeks old female Swiss-Webster mice (Envigo, Indianapolis, IN) were housed in groups in six individual cages (5 mice per cage) in ABSL2 facilities with ad libitum access to food and water in a 12-h light:dark cycle. After 1 week of acclimation, mice were intraperitoneally injected with a single dose of 100 µg of NK-lysin peptides (NK1, NK2A, NK2B, NK2C, or Sc-NK2A, ~ 4 mg/kg of body weight) in PBS (1 mL). Mice injected with PBS (1 mL) served as a negative control for the study. Mice were daily observed for any signs of toxicity and were euthanized 2 weeks post peptide administration.

**Q.** `CC[C@H](C)[C@H](NC(=O)[C@H](CO)NC(=O)[C@H](CCCCN)NC(=O)[C@H](CS)NC(=O)[C@H](CC(C)C)NC(=O)CNC(=O)[C@H](CCCCN)NC(=O)[C@H](CC(C)C)NC(=O)[C@H](CC(C)C)NC(=O)[C@H](CCCNC(=N)N)NC(=O)[C@H](CCSC)NC(=O)[C@H](CCCCN)NC(=O)[C@H](CO)NC(=O)[C@H](CS)NC(=O)[C@H](CCSC)NC(=O)[C@H](CCCCN)NC(=O)[C@H](CO)NC(=O)[C@H](C)NC(=O)[C@@H](NC(=O)[C@H](CCC(=O)O)NC(=O)[C@@H](NC(=O)[C@@H](NC(=O)[C@@H](N)[C@@H](C)O)C(C)C)[C@@H](C)CC)C(C)C)C(=O)N[C@H](C(=O)N[C@@H](CCCCN)C(=O)N[C@@H](CCCNC(=N)N)C(=O)N[C@@H](Cc1ccccc1)C(=O)N[C@@H](CC(C)C)C(=O)N[C@@H](CCCNC(=N)N)C(=O)N[C@@H](CCCNC(=N)N)C(=O)O)[C@@H](C)O` [NK2A] (H-TVIEVASKMCSKMRLLKGLCKSITKRFLRR-OH; N-terminus and C-terminus assumed) was tested. Which “ultrastructural changes to bacterial membranes” value [1] did it give?
**A.** extensively damaged outer- and inner-membranes and cytosolic content leakage

**Q.** What about the “duration of growth inhibition at 2 µM” value ([2]; 2 µM peptide, LB broth (Fig. 1a)) of the same compound?
**A.** up to 8 h

**Q.** What about the “growth inhibition of SX238 at different bacterial CFU” value ([2]; 10 µM peptide, 10^5–7 CFU/mL (10^4–6 CFU/well), 24 h growth period) of the same compound?
**A.** completely inhibited growth

**Q.** And the “duration of partial growth inhibition at high inoculum” value ([2]; 10 µM peptide, 10^8 CFU/mL (10^7 CFU/well))?
**A.** up to 9 h

**Q.** And the “delayed bacterial growth recovery after LPS preincubation” value ([3]; 5 µM (2.2 µg) NK2A preincubated 30 min with 1.1 µg and 2.2 µg LPS)?
**A.** 5 to 10 h

**Q.** And the “effect of LPS preincubation on antimicrobial activity” value ([3]; 5 µM (2.2 µg) NK2A preincubated 30 min with 4.4 µg and 8.8 µg LPS)?
**A.** completely inhibited the antimicrobial activity of NK2A

**Q.** And the “peptide concentration at which growth of SX231 was inhibited” value [4]?
**A.** ≥ 5 µM

**Q.** What about the “live/dead staining result (SYTO 9 / PI)” value (Salmonella SX238) of the same compound?
**A.** many dead (red) Salmonella SX238 were detected

**Q.** And the “peptide concentration at which growth of SB395 was inhibited” value [5]?
**A.** ≥ 5 µM

**Q.** And the “concentrations able to inhibit growth of Salmonella during 24 h” value ([6]; 24 h incubation in LB broth, MDR and non-MDR isolates)?
**A.** 3.5 to 5 µM

**Q.** And the “final concentration to which three of the four isolates were sensitive” value ([6]; SX238, SX231, SB395, SB377 at 10^5 CFU/well, the three isolates are not named)?
**A.** 3.5 µM

**Q.** And the PI uptake signal [7]?
**A.** rapid PI uptake was observed

**Q.** What about the “peptide concentration at which growth of SB377 was completely inhibited” value [8] of the same compound?
**A.** ≥ 5 µM

**Q.** What about the “signs of toxicity or death” value (Swiss-Webster mice) of the same compound?
**A.** did not show signs of toxicity or death
